Assay [1] concerns the target T1, porcine pancreatic α-amylase (Sus scrofa, UniProt P00690).
T1 sequence (P00690 16-511): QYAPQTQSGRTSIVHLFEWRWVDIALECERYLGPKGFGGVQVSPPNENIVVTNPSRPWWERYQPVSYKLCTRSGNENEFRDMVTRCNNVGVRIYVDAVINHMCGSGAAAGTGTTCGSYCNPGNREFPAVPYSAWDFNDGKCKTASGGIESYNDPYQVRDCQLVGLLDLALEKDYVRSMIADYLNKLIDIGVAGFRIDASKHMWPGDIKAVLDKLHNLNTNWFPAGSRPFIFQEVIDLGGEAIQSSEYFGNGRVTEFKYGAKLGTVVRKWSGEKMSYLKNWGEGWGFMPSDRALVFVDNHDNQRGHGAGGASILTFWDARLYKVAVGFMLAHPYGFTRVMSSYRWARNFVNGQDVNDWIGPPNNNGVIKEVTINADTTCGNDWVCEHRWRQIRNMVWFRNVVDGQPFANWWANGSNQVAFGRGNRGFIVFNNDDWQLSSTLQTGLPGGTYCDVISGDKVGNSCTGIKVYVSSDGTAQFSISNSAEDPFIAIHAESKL
The assay is described as follows: Porcine pancreatic α-amylase inhibition assay. It counts as biochemical. The settings on record: at a concentration of 25 mM/ml, FIG. 4. The protocol:
• Enzyme: porcine pancreatic α-amylase • Substrate: 1% starch solution in 0.02 M sodium phosphate buffer (pH 6.9) • Coloring Reagent: 3,5-dinitrosalicylic acid solution (DNS) in 2 M NaOH with 30% sodium potassium tartrate tetrahydrate
200 μl of a sample solution was added to 300 μl of a porcine pancreatic α-amylase solution having a concentration of 10 U, which is dissolved in a 0.02 M sodium phosphate buffer (pH 6.9; including 0.006 M sodium chloride), and incubated at 25° C. for 10 minutes.
500 μl of a 1% starch solution, which was pre-cultured at 25° C. for 10 minutes, was added to the solution, and the mixture was reacted at 25° C. for 10 minutes.
1 ml of a 1% DNS solution dissolved in 30% Rochelle salt was added and treated in boiling water bath for 5 minutes and cooled to room temperature, and 10 ml of distilled water was added to the resultant.
The absorbance of a reaction solution of the DNS solution and sugar decomposed from the substrate by α-amylase was measured at 540 nm by using an ELISA reader.

Assay [2] has as its system SD rat. Kind of assay: Postprandial blood sugar rise suppression after sucrose administration. The note with it: for postprandial blood sugar: sucrose. The assay is classed as in vivo. As to the method:
(§1) An SD rat, a 5-week-old male, was purchased from RAONBIO, bred in an animal breeding room, and only healthy animals at 6 weeks of age were selected and used in the experiment. After fasting the experimental animals for 24 hours or longer before the experiment, the coffee extract was administered at a concentration of 0.5 g/kg to 2 g/kg body weight of sucrose or starch, and the sample was orally administered using a zonde for oral administration. The administration group was 6 groups, 6 per each group. The blood was collected from the rat tail vein at 30, 60 and 120 minutes after oral administration, and changes in blood sugar concentration in the venous blood were measured using a blood sugar meter ([…]).

The subject of assay [3] is SD rat. The assay is described as follows: Postprandial blood sugar rise suppression after starch administration. The assay is classed as in vivo. The protocol: as §1
Assay [4] relates to rat intestinal α-glucosidase. The assay is described as follows: Rat intestinal α-glucosidase inhibition assay. The assay is classed as biochemical. The settings on record: in words, FIG. 1 and FIG. 2. The protocol: • Enzyme: rat small intestinal acetone powder • Substrate: PNP-glycoside (pNPG, p-Nitrophenyl α-Dglucopyranoside) 150 mg of rat small intestine acetone powder was added to 9 ml of 0.1 M sodium phosphate buffer (pH 6.9; including 0.9% sodium chloride), ultrasonicated 12 times in an ice water bath for 30 seconds, and then centrifuged at 13,000 rpm and 4° C. for 3 minutes. After centrifugation, a supernatant was collected and used in rat intestinal α-glucosidase inhibition assay. 100 μl of a rat α-glucosidase solution and 50 μl of a sample solution were added and reacted at 37° C. for 10 minutes, and then 50 μl of 5 mM pNPG solution was added thereto to react the mixture at 37° C. for 10 minutes. After completion of the reaction, inhibitory activity against rat intestinal α-glucosidase was analyzed by measuring absorbance at 405 nm by using an ELISA reader. The sample solution used in the experiment was prepared as follows. The hot-water extract was centrifuged (8000 rpm, 30 min), the supernatant was filtered through a filter paper (90 mm/Whatman™), and the filtrate was concentrated to 60 to 150 ml and freeze-dried to produce extract powder. 100 mg of powder was mixed with 1 L of water to prepare a sample solution.

Where [5] appears, read: 0.1 g/kg of chlorogenic acid, 30 minutes.
[6] abbreviates: 0.1 g/kg of chlorogenic acid, 60 minutes (first value of 'from 30 minutes to 2 hours').
Setting [7] is: 0.1 g/kg of chlorogenic acid, 120 minutes (2 hours).
The mark [8] stands for this setting: 0.5 g/kg of chlorogenic acid, 30 minutes.
Setting [9] is: 0.5 g/kg of chlorogenic acid, 60 minutes (first value of 'from 30 minutes to 2 hours').
[10] abbreviates: 0.5 g/kg of chlorogenic acid, 120 minutes (2 hours).

Molecules are shown by their SMILES. Entries after “also recorded” stand apart in the source; their conditions may differ.

The record followed here is patent US20250170200A1, “COMPOSITION COMPRISING COFFEE EXTRACT FOR SUPPRESSING POSTPRANDIAL BLOOD SUGAR RISE” (PYXIS INC., priority 2022, published 2025).

In the case of `O=C(/C=C/c1ccc(O)c(O)c1)O[C@@H]1C[C@](O)(C(=O)O)C[C@@H](O)[C@H]1O` [chlorogenic acid], in assay [1], the “inhibitory activity against α-amylase” value is listed as “excellent inhibitory activity”. For the same molecule, in the assay with SD rat [2] (in words), the “effect on postprandial blood sugar rise after sucrose intake” value is listed as “effect of suppressing postprandial blood sugar rise”. Also, the postprandial blood sugar in the assay on SD rat [2] (setting [5]) turned out to be 184.93 ± 8.24 mg/dL; in the assay on SD rat [2] (setting [6]), 174.00 ± 16.67 mg/dL; with SD rat [2] (setting [7]) it was 147.38 ± 10.86 mg/dL; with SD rat [2] (setting [8]) it was 131.29 ± 14.47 mg/dL; with SD rat [2] (setting [9]), 130.64 ± 10.90 mg/dL; in the assay with SD rat [2] (setting [10]) it was 120.69 ± 13.77 mg/dL. Moreover, the blood sugar in the assay with SD rat [3] (setting [5]) is 239.00 ± 25.86 mg/dL; in the assay on SD rat [3] (setting [6]), 137.33 ± 10.46 mg/dL; in the assay on SD rat [3] (setting [7]), 126.08 ± 10.75 mg/dL; in the assay with SD rat [3] (setting [8]) it was 225.17 ± 18.37 mg/dL; in the assay on SD rat [3] (setting [9]) it was 137.23 ± 9.58 mg/dL; in the assay on SD rat [3] (setting [10]) it was 126.46 ± 12.1 mg/dL. Besides, the “inhibitory activity against rat intestinal α-glucosidase” value in assay [4] is “increases in dependence on the concentration; also recorded: the most excellent”.
As to `O=C(O)[C@]1(O)C[C@@H](O)[C@@H](O)[C@H](O)C1` [quinic acid], the “inhibitory activity against α-amylase” value in assay [1] is listed as “excellent inhibitory activity”. Further, the “inhibitory activity against rat intestinal α-glucosidase” value in assay [4] is given as “increases in dependence on the concentration”.
`O=C(O)/C=C/c1ccc(O)c(O)c1` [caffeic acid]: the “inhibitory activity against rat intestinal α-glucosidase” value in assay [4] is reported as “increases in dependence on the concentration”.
